One experiment concerns Pythium ultimum. Nature of the experiment: Pythium ultimum / liquid culture (seedling damping off), well plate mixture test. It is filed as cell-based.
In a further experiment the test system is Gaeumannomyces graminis. Nature of the experiment: Gaeumannomyces graminis / liquid culture (take-all of cereals), well plate mixture test. It is filed as cell-based.
The test system of the next experiment is Ustilago nuda. Nature of the experiment: Ustilago nuda / liquid culture (barley loose smut), well plate mixture test. It counts as cell-based.
Experiment [1] deals with Monographella nivalis (Microdochium nivale). The experiment is described as follows: Monographella nivalis (Microdochium nivale) / liquid culture (foot rot cereals), well plate mixture test. It counts as cell-based.
In the next experiment the test system is Fusarium culmorum. Nature of the experiment: microbe, parasite or virus in culture. It counts as cell-based. The settings on record: read-out: % efficacy observed.
For experiment [2], the system named is Thanatephorus cucumeris (Rhizoctonia solani).
Description: A synergistic effect exists whenever the action of an active ingredient combination is greater than the sum of the actions of the individual components.
ppm=milligrams of active ingredient (=a.i.) per liter of spray mixture X=% action by active ingredient A) using p ppm of active ingredient Y=% action by active ingredient B) using q ppm of active ingredient. According to COLBY, the expected (additive) action of active ingredients A)+B) using p+q ppm of active ingredient is
If the action actually observed (O) is greater than the expected action (E), then the action of the combination is super-additive, i.e. there is a synergistic effect. In mathematical terms, synergism corresponds to a positive value for the difference of (O-E). In the case of purely complementary addition of activities (expected activity), said difference (O-E) is zero. A negative value of said difference (O-E) signals a loss of activity compared to the expected activity.
Method Description Liquid Culture Tests in Well Plates for Mixtures
Thanatephorus cucumeris (Rhizoctonia solani)/Liquid Culture (Foot Rot, Damping-Off)
Mycelia fragments of a newly grown liquid culture of the fungus are directly mixed into nutrient broth (PDB potato dextrose broth). After placing a (DMSO) solution of the test compounds into a microtiter plate (96-well format), the nutrient broth containing the fungal material is added. The test plates are incubated at 24° C. and the inhibition of growth is determined photometrically 3-4 days after application and percent antifungal activity relative to the untreated check is calculated.
[3] abbreviates: Thanatephorus cucumeris, read-out: % efficacy observed.

SMILES strings stand for the structures. Values joined by “and” are separate entries in the source; they are usually repeats but may differ in a detail not shown here. Identical values can stand only once. Like-named read-outs stand apart in the source and are kept apart here.

In the case of `CO/C=C(/C(=O)OC)c1ccccc1Oc1cc(Oc2ccccc2C#N)ncn1` [Azoxystrobin, azoxystrobin], the “% efficacy observed” value is 14.0% in the experiment on Pythium ultimum (Azoxystrobin 0.0250 mg ai/l); 35.6% in the experiment with Pythium ultimum (Azoxystrobin 0.0500 mg ai/l); 45.3% with Pythium ultimum (Azoxystrobin 0.1000 mg ai/l); 40.7% with Gaeumannomyces graminis (Azoxystrobin 0.0008 mg ai/l); 67.0% in the experiment with Gaeumannomyces graminis (Azoxystrobin 0.0016 mg ai/l); 74.8% with Gaeumannomyces graminis (Azoxystrobin 0.0031 mg ai/l).
For `COc1ccc(CC(=O)N(O)Cc2ccc(F)cc2)cc1` [Compound D4], the Emax at 0.0391 µg/mL with Pythium ultimum (Globisporangium ultimum, D4 0.0391 mg ai/l, read-out: % efficacy observed) came out at 0%. The Emax at 0.1563 µg/mL in the experiment with Pythium ultimum (Globisporangium ultimum, D4 0.1563 mg ai/l, read-out: % efficacy observed) stood at 0%; with Gaeumannomyces graminis (Gaeumannomyces graminis, D4 0.1563 mg ai/l, read-out: % efficacy observed), 0%; in experiment [1] (Monographella nivalis, D4 0.1563 mg ai/l, read-out: % efficacy observed) it was 6.7%; in experiment [2] (Thanatephorus cucumeris, read-out: % efficacy observed, D4 0.1563 mg ai/l), 0%. Further, the Emax at 0.3125 µg/mL was 0% in the experiment on Pythium ultimum (Globisporangium ultimum, D4 0.3125 mg ai/l, read-out: % efficacy observed); 0% with Gaeumannomyces graminis (Gaeumannomyces graminis, D4 0.3125 mg ai/l, read-out: % efficacy observed); 0% in the experiment on Ustilago nuda (Ustilago nuda, D4 0.3125 mg ai/l, read-out: % efficacy observed); 10.2% in experiment [1] (Monographella nivalis, D4 0.3125 mg ai/l, read-out: % efficacy observed). The Emax at 0.625 µg/mL with Pythium ultimum (Globisporangium ultimum, D4 0.6250 mg ai/l, read-out: % efficacy observed) amounted to 0%; in the experiment with Gaeumannomyces graminis (Gaeumannomyces graminis, D4 0.6250 mg ai/l, read-out: % efficacy observed), 0%; in the experiment with Ustilago nuda (Ustilago nuda, D4 0.6250 mg ai/l, read-out: % efficacy observed), 0%; in experiment [1] (Monographella nivalis, D4 0.6250 mg ai/l, read-out: % efficacy observed), 0%. In addition, the Emax at 1.25 µg/mL with Pythium ultimum (Globisporangium ultimum, D4 1.2500 mg ai/l, read-out: % efficacy observed) stood at 0%; in the experiment with Gaeumannomyces graminis (Gaeumannomyces graminis, D4 1.2500 mg ai/l, read-out: % efficacy observed), 0%; in the experiment with Ustilago nuda (Ustilago nuda, D4 1.2500 mg ai/l, read-out: % efficacy observed), 0%. The Emax at 2.5 µg/mL in the experiment on Pythium ultimum (Globisporangium ultimum, D4 2.5000 mg ai/l, read-out: % efficacy observed) is 0%; with Gaeumannomyces graminis (Gaeumannomyces graminis, D4 2.5000 mg ai/l, read-out: % efficacy observed) it was 0%; with Ustilago nuda (Ustilago nuda, D4 2.5000 mg ai/l, read-out: % efficacy observed) it was 7%; in experiment [1] (Monographella nivalis, D4 2.5000 mg ai/l, read-out: % efficacy observed), 2.8%. Besides, the “% efficacy observed” value with Gaeumannomyces graminis (D4 0.000000 mg ai/l) is 5.3%; in the experiment with Ustilago nuda (D4 0.0391 mg ai/l) it was 8.7%; with Ustilago nuda (D4 0.0781 mg ai/l) it was 2.5% and 0.2%; in the experiment with Ustilago nuda (D4 0.1563 mg ai/l), 3.7%; in experiment [2] (D4 0.6250 mg ai/l), 2.1% and 4.6%. In addition, the Emax at 0.0781 µg/mL in the experiment with Gaeumannomyces graminis (Gaeumannomyces graminis, D4 0.0781 mg ai/l, read-out: % efficacy observed) was determined as 0%; in experiment [2] (Thanatephorus cucumeris, read-out: % efficacy observed, D4 0.0781 mg ai/l) it was 0%. Moreover, the Emax at 5 µg/mL came out at 0% in the experiment with Gaeumannomyces graminis (Gaeumannomyces graminis, D4 5.0000 mg ai/l, read-out: % efficacy observed) and 2.1% in experiment [1] (Monographella nivalis, D4 5.0000 mg ai/l, read-out: % efficacy observed). Further, the Emax at 10 µg/mL with Gaeumannomyces graminis (Gaeumannomyces graminis, D4 10.0000 mg ai/l, read-out: % efficacy observed) is 0%; in experiment [1] (Monographella nivalis, D4 10.0000 mg ai/l, read-out: % efficacy observed), 6.4%; in the experiment on Fusarium culmorum it was 0%. Also, the Emax at 20 µg/mL came out at 0% in the experiment with Gaeumannomyces graminis (Gaeumannomyces graminis, D4 20.0000 mg ai/l, read-out: % efficacy observed); 1.3% in the experiment on Ustilago nuda (Ustilago nuda, D4 20.0000 mg ai/l, read-out: % efficacy observed); 1.4% in experiment [1] (Monographella nivalis, D4 20.0000 mg ai/l, read-out: % efficacy observed); 0% in the experiment on Fusarium culmorum; 0% in experiment [2] (Thanatephorus cucumeris, read-out: % efficacy observed, D4 20.0000 mg ai/l).
For the molecule `CC1COC(Cn2cncn2)(c2ccc(Oc3ccc(Cl)cc3)cc2Cl)O1` (stereo not shown) [Difenconazole], the Emax at 0.5 µg/mL with Gaeumannomyces graminis (Gaeumannomyces graminis, Difenconazole 0.5000 mg ai/l, read-out: % efficacy observed) was 0%; with Ustilago nuda (Ustilago nuda, Difenconazole 0.5000 mg ai/l, read-out: % efficacy observed), 30%; in experiment [2] (Thanatephorus cucumeris, read-out: % efficacy observed, Difenconazole 0.5000 mg ai/l), 0%. The Emax at 1 µg/mL with Gaeumannomyces graminis (Gaeumannomyces graminis, Difenconazole 1.0000 mg ai/l, read-out: % efficacy observed) was found to be 10.6%; with Ustilago nuda (Ustilago nuda, Difenconazole 1.0000 mg ai/l, read-out: % efficacy observed), 45.9%; in experiment [2] (Thanatephorus cucumeris, read-out: % efficacy observed, Difenconazole 1.0000 mg ai/l), 0%. Moreover, the Emax at 2 µg/mL in the experiment with Gaeumannomyces graminis (Gaeumannomyces graminis, Difenconazole 2.0000 mg ai/l, read-out: % efficacy observed) is 39%; in the experiment on Ustilago nuda (Ustilago nuda, Difenconazole 2.0000 mg ai/l, read-out: % efficacy observed) it was 60.5%.
Consider `N#Cc1c[nH]cc1-c1cccc2c1OC(F)(F)O2` [Fludioxonyl], for which the Emax at 0.0313 µg/mL with Ustilago nuda (Ustilago nuda, read-out: % efficacy observed) turned out to be 33.1%. In experiment [2] (setting [3]), the Emax at 0.125 µg/mL was found to be 13.8%, the Emax at 0.25 µg/mL is 66.5%, the Emax at 0.5 µg/mL was found to be 60.5% and the Emax at 1 µg/mL came out at 86.8%.
With `Cn1cc(C(=O)Nc2ccccc2-c2cc(F)c(F)c(F)c2)c(C(F)F)n1` [Fluxapyroxad, fluxapyroxad], the “% efficacy observed” value is 22.2% in experiment [1] (Fluxapyroxad 0.1875 mg ai/l); 55.5% in experiment [1] (Fluxapyroxad 0.3750 mg ai/l); 65.4% in experiment [1] (Fluxapyroxad 0.7500 mg ai/l); 29.7% in experiment [2] (Fluxapyroxad 0.1875 mg ai/l); 61.8% in experiment [2] (Fluxapyroxad 0.3750 mg ai/l); 71.9% in experiment [2] (Fluxapyroxad 0.7500 mg ai/l). Further, the “% efficacy observed” value in experiment [2] (Fluxapyroxad 1.5000 mg ai/l) was found to be 67.9%.
Turning to `COCC(=O)N(c1c(C)cccc1C)[C@H](C)C(=O)OC` [Mefenoxam, mefenoxam], the “% efficacy observed” value was found to be 34.1% in the experiment on Pythium ultimum (Mefenoxam 0.0078 mg ai/l); 37.8% in the experiment on Pythium ultimum (Mefenoxam 0.0156 mg ai/l); 70.2% in the experiment with Pythium ultimum (Mefenoxam 0.0313 mg ai/l); 71.3% with Pythium ultimum (Mefenoxam 0.0625 mg ai/l); 84.4% in the experiment with Pythium ultimum (Mefenoxam 0.1250 mg ai/l).
Regarding `Cc1nn(C)c(F)c1C(=O)Nc1ccccc1C(C)CC(C)C` (stereo not shown) [Penflufen, penflufen], the “% efficacy observed” value stood at 23.1% with Ustilago nuda (Penflufen 0.0039 mg ai/l); 19.4% in experiment [1] (Penflufen 1.0000 mg ai/l); 56.8% in experiment [1] (Penflufen 2.0000 mg ai/l); 20.8% in experiment [2] (Penflufen 0.0156 mg ai/l); 7.5% in experiment [2] (Penflufen 0.0313 mg ai/l); 42.0% in experiment [2] (Penflufen 0.0625 mg ai/l). Besides, the “% efficacy observed” value in experiment [2] (Penflufen 0.1250 mg ai/l) is listed as 64.3%; in experiment [2] (Penflufen 0.2500 mg ai/l), 83.3%.
As to `Cn1cc(C(=O)Nc2ccccc2C2CC2C2CC2)c(C(F)F)n1` (stereo not shown) [Sedaxane, sedaxane], the “% efficacy observed” value in the experiment on Gaeumannomyces graminis (Sedaxane 1.5000 mg ai/l) turned out to be 46.7%; in the experiment on Ustilago nuda (Sedaxane 0.0117 mg ai/l), 55.0%; in experiment [2] (Sedaxane 0.0469 mg ai/l), 0.0%; in experiment [2] (Sedaxane 0.0938 mg ai/l), 41.1%; in experiment [2] (Sedaxane 0.1875 mg ai/l), 71.1%; in experiment [2] (Sedaxane 0.3750 mg ai/l) it was 72.2%. The “% efficacy observed” value in experiment [2] (Sedaxane 0.7500 mg ai/l) worked out at 72.2%.
Consider `CC(C)(C)C(O)(CCc1ccc(Cl)cc1)Cn1cncn1` (stereo not shown) [Tebuconazole, tebuconazole], for which the Emax at 0.25 µg/mL in the experiment on Gaeumannomyces graminis (Gaeumannomyces graminis, Tebuconazole 0.2500 mg ai/l, read-out: % efficacy observed) is 43.5%. In the experiment on Gaeumannomyces graminis (Gaeumannomyces graminis, Tebuconazole 0.5000 mg ai/l, read-out: % efficacy observed), the Emax at 0.5 µg/mL was 47.5%. For the same molecule, the Emax at 1 µg/mL was 61% with Gaeumannomyces graminis (Gaeumannomyces graminis, Tebuconazole 1.0000 mg ai/l, read-out: % efficacy observed) and 0% in experiment [2] (Thanatephorus cucumeris, read-out: % efficacy observed, Tebuconazole 1.0000 mg ai/l). The Emax at 2 µg/mL in the experiment with Gaeumannomyces graminis (Gaeumannomyces graminis, Tebuconazole 2.0000 mg ai/l, read-out: % efficacy observed) turned out to be 74%; in experiment [2] (Thanatephorus cucumeris, read-out: % efficacy observed, Tebuconazole 2.0000 mg ai/l) it was 0%.
Consider `c1ccc2[nH]c(-c3cscn3)nc2c1` [Thiabendazole, thiabendazole], for which, in the experiment with Fusarium culmorum, the Emax at 3 µg/mL came out at 45.3% and the Emax at 6 µg/mL is 71.7%.

Values taken from patent US20150150253A1, “CROP ENHANCEMENT COMPOSITIONS” (Syngenta Participations AG, priority 2012, published 2015).
